According to patent publication US10710980B2, “Aminopyridine derivatives and their use as selective ALK-2 inhibitors” (priority 2016, dated 2020):

Key:
[1] = target: T1, wild-type ALK2 (aa172-499) (Homo sapiens (Human), UniProt Q04771); test: ADPGlo biochemical autophosphorylation assay, ALK2; settings: 15 μm ATP, 60 min at 32° C.
ALK3 (aa198-525) = ALK3 (aa198-525) (Homo sapiens (Human), UniProt P36894); test: ADPGlo biochemical autophosphorylation assay, ALK3; settings: 15 μm ATP, 60 min at 32° C.
ALK3 (aa198-525), sequence (P36894 198-525): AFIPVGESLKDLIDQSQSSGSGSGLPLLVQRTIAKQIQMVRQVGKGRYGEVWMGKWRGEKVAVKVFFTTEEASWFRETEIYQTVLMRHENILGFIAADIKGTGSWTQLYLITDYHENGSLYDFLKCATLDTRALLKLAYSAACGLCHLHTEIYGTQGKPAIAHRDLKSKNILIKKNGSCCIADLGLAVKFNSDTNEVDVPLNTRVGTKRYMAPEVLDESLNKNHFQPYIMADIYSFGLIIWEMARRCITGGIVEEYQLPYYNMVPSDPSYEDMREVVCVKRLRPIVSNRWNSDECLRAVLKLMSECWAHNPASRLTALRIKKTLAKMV

[2] = target: T1, wild-type ALK2 (aa172-499); test: Caliper biochemical peptide phosphorylation assay, ALK2; settings: 15 μm ATP, 60 min at 30° C.; read-out: ALK2 EPK (IC50)
ALK1 (aa166-493) = ALK1 (aa166-493) (Homo sapiens (Human), UniProt P37023); test: Caliper biochemical peptide phosphorylation assay, ALK1; settings: 15 μm ATP, 60 min at 30° C.; read-out: ALK1 EPK (IC50)
ALK1 (aa166-493), sequence (P37023 166-493): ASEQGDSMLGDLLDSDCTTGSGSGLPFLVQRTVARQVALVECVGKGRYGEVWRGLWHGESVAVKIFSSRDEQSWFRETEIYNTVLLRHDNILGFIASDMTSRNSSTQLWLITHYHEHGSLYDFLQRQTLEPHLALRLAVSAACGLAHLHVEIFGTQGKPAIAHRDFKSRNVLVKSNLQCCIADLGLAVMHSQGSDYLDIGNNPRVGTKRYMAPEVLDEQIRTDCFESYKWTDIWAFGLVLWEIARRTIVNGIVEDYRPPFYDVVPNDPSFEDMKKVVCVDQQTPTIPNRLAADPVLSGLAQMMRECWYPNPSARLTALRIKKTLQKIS

ALK5 (aa162-503) = ALK5 (aa162-503) (Homo sapiens (Human), UniProt P36897); test: Caliper biochemical peptide phosphorylation assay, ALK5; settings: 15 μm ATP, 60 min at 30° C.; read-out: ALK5 EPK (IC50)
ALK5 (aa162-503), sequence (P36897 162-503): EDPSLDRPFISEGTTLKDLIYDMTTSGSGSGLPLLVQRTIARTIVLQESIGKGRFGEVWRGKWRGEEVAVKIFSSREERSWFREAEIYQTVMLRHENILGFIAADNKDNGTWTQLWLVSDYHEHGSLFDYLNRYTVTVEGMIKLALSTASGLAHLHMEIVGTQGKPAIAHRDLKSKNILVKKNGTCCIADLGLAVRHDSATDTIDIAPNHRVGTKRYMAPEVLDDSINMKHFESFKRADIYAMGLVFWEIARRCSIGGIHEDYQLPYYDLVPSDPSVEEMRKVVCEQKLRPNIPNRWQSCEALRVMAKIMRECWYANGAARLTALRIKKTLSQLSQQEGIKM

ALK6 (aa168-495) = ALK6 (aa168-495) (Homo sapiens (Human), UniProt O00238); test: Caliper biochemical peptide phosphorylation assay, ALK6; settings: 15 μm ATP, 60 min at 30° C.; read-out: ALK6 EPK (IC50)
ALK6 (aa168-495), sequence (O00238 168-495): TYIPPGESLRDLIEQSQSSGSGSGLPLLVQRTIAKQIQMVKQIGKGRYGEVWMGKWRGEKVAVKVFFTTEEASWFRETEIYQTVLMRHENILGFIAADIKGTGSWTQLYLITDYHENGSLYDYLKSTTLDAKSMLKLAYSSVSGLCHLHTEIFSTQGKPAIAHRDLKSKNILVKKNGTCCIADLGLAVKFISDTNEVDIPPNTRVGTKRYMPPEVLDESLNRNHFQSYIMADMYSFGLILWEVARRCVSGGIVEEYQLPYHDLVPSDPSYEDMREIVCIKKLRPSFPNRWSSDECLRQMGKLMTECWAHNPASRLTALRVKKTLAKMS

[3] = test system: BMP response element (BRE) luciferase reporter in HuH7 cells, BMP6 stimulated; test: BMP signaling reporter gene assay; format: cell-based; settings: Homo sapiens, Huh-7; HuH7 BRE-luciferase, BMP6 100 ng/ml, 5 hours; read-out: MSD BMP RGA IC50

T1 sequence (Q04771 172-499): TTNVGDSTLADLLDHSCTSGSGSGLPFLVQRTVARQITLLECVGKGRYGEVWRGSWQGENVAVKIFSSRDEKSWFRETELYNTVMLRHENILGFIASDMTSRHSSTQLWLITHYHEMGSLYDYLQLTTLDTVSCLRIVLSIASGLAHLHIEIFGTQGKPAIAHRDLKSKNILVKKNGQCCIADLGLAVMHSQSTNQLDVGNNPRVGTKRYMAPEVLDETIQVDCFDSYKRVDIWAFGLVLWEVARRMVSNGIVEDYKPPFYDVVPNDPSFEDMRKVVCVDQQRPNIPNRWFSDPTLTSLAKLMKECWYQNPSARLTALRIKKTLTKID

| IC50 [1] [nM] | IC50 (ALK3 (aa198-525)) [nM] | IC50 [2] [nM] | IC50 (ALK1 (aa166-493)) [nM] | IC50 (ALK5 (aa162-503)) [nM] | IC50 (ALK6 (aa168-495)) [nM] | IC50 [3] [nM] | Structure (SMILES) |
| --- | --- | --- | --- | --- | --- | --- | --- |
| 22 | 12700 | 20 | 743 | 3200 | 3300 | 93 | CC(C)N1C[C@@H]2C[C@]2(c2ccc(-c3cnc(N)c(C(=O)N[C@H]4CC[C@](C)(O)CC4)c3)cc2)C1 [Example 32, 2-amino-N-((1r,4S)-4-hydroxy-4-methylcyclohexyl)-5-(4-((1S,5R)-3-isopropyl-3-azabicyclo[3.1.0]hexan-1-yl)phenyl)nicotinamide] |
| 18 | 914 | 23 | 323 | 6280 | 3300 | 49 | Nc1ncc(-c2ccc([C@@]34C[C@@H]3CN(C3CCOCC3)C4)cc2)cc1C(=O)NC12CCC(O)(CC1)CC2 [Example 34, 2-amino-N-(4-hydroxybicyclo[2.2.2]octan-1-yl)-5-(4-((1R,5S)-3-(tetrahydro-2H-pyran-4-yl)-3-azabicyclo[3.1.0]hexan-1-yl)phenyl)nicotinamide] |
| 17 | 903 | 21 | 283 | 5720 | 4500 | 73 | Nc1ncc(-c2ccc([C@]34C[C@H]3CN(C3CCC(F)(F)CC3)C4)cc2)cc1C(=O)NC12CCC(O)(CC1)CC2 [Example 35, 2-amino-5-(4-((1S,5R)-3-(4,4-difluorocyclohexyl)-3-azabicyclo[3.1.0]hexan-1-yl)phenyl)-N-(4-hydroxybicyclo[2.2.2]octan-1-yl)nicotinamide] |
| 16 | 1450 | 23 | 295 | 10000 | 7200 | 43 | CC(C)N1C[C@H]2C[C@@]2(c2ccc(-c3cnc(N)c(C(=O)NC45CC(CO)(C4)C5)c3)cc2)C1 [Example 36, 2-amino-N-(3-(hydroxymethyl)bicyclo[1.1.1]pentan-1-yl)-5-(4-((1R,5S)-3-isopropyl-3-azabicyclo[3.1.0]hexan-1-yl)phenyl)nicotinamide] |
| 8 | 960 | 27 | 100 | 1100 | 1700 | 37 | CC#CCN1C[C@@H]2C[C@]2(c2ccc(-c3cnc(N)c(C(=O)N[C@H]4CC[C@H](O)CC4)c3)cc2)C1 [Example 37, 2-amino-5-(4-((1S,5R)-3-(but-2-yn-1-yl)-3-azabicyclo[3.1.0]hexan-1-yl)phenyl)-N-((1r,4S)-4-hydroxycyclohexyl)nicotinamide] |
| 7 | 1300 | 28 | 160 | 1500 | 2600 | 58 | Nc1ncc(-c2ccc([C@]34C[C@H]3CN(CC3COC3)C4)cc2)cc1C(=O)N[C@H]1CC[C@H](O)CC1 [Example 38, 2-amino-N-((1r,4S)-4-hydroxycyclohexyl)-5-(4-((1S,5R)-3-(oxetan-3-ylmethyl)-3-azabicyclo[3.1.0]hexan-1-yl)phenyl)nicotinamide] |
| 13 | 830 | 24 | 190 | 1600 | 2000 | 78 | Nc1ncc(-c2ccc([C@@]34C[C@@H]3CN(C3CCN(CC(F)(F)F)CC3)C4)cc2)cc1C(=O)N[C@H]1CC[C@H](O)CC1 [Example 39, 2-amino-N-((1r,4R)-4-hydroxycyclohexyl)-5-(4-((1R,5S)-3-(1-(2,2,2-trifluoroethyl)piperidin-4-yl)-3-azabicyclo[3.1.0]hexan-1-yl)phenyl)nicotinamide] |
| 32 | 995 | 29 | 410 | 3900 | 2850 | 75 | Nc1ncc(-c2ccc([C@]34C[C@H]3CN(CCN3CCOCC3)C4)cc2)cc1C(=O)NC12CCC(O)(CC1)CC2 [Example 40, 2-amino-N-(4-hydroxybicyclo[2.2.2]octan-1-yl)-5-(4-((1S,5R)-3-(2-morpholinoethyl)-3-azabicyclo[3.1.0]hexan-1-yl)phenyl)nicotinamide] |
| 19 | 1800 | 23 | 310 | 6700 | 6900 | 158 | Nc1ncc(-c2ccc([C@@]34C[C@@H]3CN(CCOCC(F)(F)F)C4)cc2)cc1C(=O)N[C@H]1CC[C@H](O)CC1 [Example 41, 2-amino-N-((1r,4R)-4-hydroxycyclohexyl)-5-(4-((1R,5S)-3-(2-(2,2,2-trifluoroethoxy)ethyl)-3-azabicyclo[3.1.0]hexan-1-yl)phenyl)nicotinamide] |
| 26 | 1300 | 29 | 540 | 4770 | 4100 | 235 | Nc1ncc(-c2ccc([C@]34C[C@H]3CN(C3CCOCC3)C4)cc2)cc1C(=O)NC12CCC(O)(CC1)CC2 [Example 42, 2-amino-N-(4-hydroxybicyclo[2.2.2]octan-1-yl)-5-(4-((1S,5R)-3-(tetrahydro-2H-pyran-4-yl)-3-azabicyclo[3.1.0]hexan-1-yl)phenyl)nicotinamide] |
| 31 | 2350 | 25 | 765 | 3500 | 11000 | 130 | Nc1ncc(-c2ccc(OCCCN3CCCCC3)cc2)cc1C(=O)NC1CCCCC1 [Example 43, 2-amino-N-cyclohexyl-5-(4-(3-(piperidin-1-yl)propoxy)phenyl)nicotinamide] |
| 18 | 430 | 24 | 170 | 3200 | 2000 | 365 | Nc1ncc(-c2ccc([C@@]34C[C@@H]3CN(C3CCS(=O)(=O)CC3)C4)cc2)cc1C(=O)N[C@H]1CC[C@H](O)CC1 [Example 44, 2-amino-5-(4-((1R,5S)-3-(1,1-dioxidotetrahydro-2H-thiopyran-4-yl)-3-azabicyclo[3.1.0]hexan-1-yl)phenyl)-N-((1r,4R)-4-hydroxycyclohexyl)nicotinamide] |
| 20 | 1600 | 25 | 750 | 2700 | 4800 | 365 | CN1CCN(C(=O)c2ccc(-c3cnc(N)c(C(=O)NC4CCCCC4)c3)cc2)CC1 [Example 45, 2-amino-N-cyclohexyl-5-(4-(4-methylpiperazine-1-carbonyl)phenyl)nicotinamide] |
| 21 | 1300 | 25 | 290 | 4700 | 3500 | 130 | Nc1ncc(-c2ccc([C@@]34C[C@@H]3CN(CCC(F)(F)F)C4)cc2)cc1C(=O)N[C@H]1CC[C@H](O)CC1 [Example 47, 2-amino-N-((1r,4R)-4-hydroxycyclohexyl)-5-(4-((1R,5S)-3-(3,3,3-trifluoropropyl)-3-azabicyclo[3.1.0]hexan-1-yl)phenyl)nicotinamide] |
| 8 | 970 | 34 | 120 | 5300 | 4400 | 360 | Nc1ncc(-c2ccc([C@@]34C[C@@H]3CN(CCF)C4)cc2)cc1C(=O)N[C@H]1CC[C@H](O)CC1 [Example 48, 2-amino-5-(4-((1R,5S)-3-(2-fluoroethyl)-3-azabicyclo[3.1.0]hexan-1-yl)phenyl)-N-((1r,4R)-4-hydroxycyclohexyl)nicotinamide] |
| 11 | 2400 | 37 | 500 | 6400 | 5100 | 825 | CC(F)(F)CN1C[C@H]2C[C@@]2(c2ccc(-c3cnc(N)c(C(=O)N[C@H]4CC[C@H](O)CC4)c3)cc2)C1 [Example 50, 2-amino-5-(4-((1R,5S)-3-(2,2-difluoropropyl)-3-azabicyclo[3.1.0]hexan-1-yl)phenyl)-N-((1r,4R)-4-hydroxycyclohexyl)nicotinamide] |
| 16 | 780 | 31 | 120 | 1400 | 1700 | 64 | N#CCCN1C[C@@H]2C[C@]2(c2ccc(-c3cnc(N)c(C(=O)N[C@H]4CC[C@H](O)CC4)c3)cc2)C1 [Example 51, 2-amino-5-(4-((1S,5R)-3-(2-cyanoethyl)-3-azabicyclo[3.1.0]hexan-1-yl)phenyl)-N-((1r,4S)-4-hydroxycyclohexyl)nicotinamide] |
| 67 | 2800 | 31 | 970 | 8600 | 20200 | 340 | Nc1ncc(-c2ccc(OCCCN3CCOCC3)cc2)cc1C(=O)NC1CCCCC1 [Example 52, 2-amino-N-cyclohexyl-5-(4-(3-morpholinopropoxy)phenyl)nicotinamide] |
